Data from patent US9351955B2, “Compounds and pharmaceutical compositions thereof for the treatment of cystic fibrosis” (Galapagos NV, priority 2013, dated 2016).

What was measured:
CFTR ΔF508 mutant = biological target: T1, CFTR ΔF508 mutant (Homo sapiens, UniProt P13569, DEL508-508); assay: YFP-halide influx assay for the CFTR-ΔF508 mutation (384 well, CFBE41o- cells, FDSS/μCell); type: cell-based; conditions: forskolin 10.67 μM, fluorescence after 36 seconds, read-out: EC50 measured by YFP-halide influx assay for the CFTR-ΔF508
T1 construct: expressed in transfected cells; host or cells: CFBE41o- (adenoviral transduction)
Text: 6.2. YFP-Halide Influx Assay for the CFTR-ΔF508 Mutation
The YFP halide influx assay measures the functionality of the cystic fibrosis Transmembrane Conductance regulator (CFTR) channels in the cystic fibrosis bronchial epithelium cell line CFBE41o-. The assay is used to evaluate the capacity of compounds to increase the open probability of existing CFTR channels in the membrane. It makes use of the observation that the yellow fluorescent protein (YFP) variant YFP H148Q, I152L has its fluorescence substantially quenched by halide ions like Cl— and I— (Galietta et al., 2001; Nagai et al., 2002).
For this purpose, CFBE410-cells are seeded in 384 well plates (3000 CFBE cells/well). One day after seeding, the CFBE cells are transduced with adenoviral vectors that direct the expression of the CFTR ΔF508 mutant and of the YFP reporter. Cells are incubated at 27° C., 5% CO2 for 24 hours so as to allow for the proper folding and migration to the membrane of the CFTR channel or treated with a CFTR modulator during 24 h at 37° C.
(§1) The I— induced quenching of fluorescence is recorded on an immediately after injection of I— for 2 min on an FDSS/μCell (Hamamatsu). The capacity of a compound to increase the channel opening is directly correlated with the decrease in fluorescence, and is expressed as (1−(fluorescence after 36 seconds (F)/fluorescence before injection (F0))) and an EC50 can be derived from a (1−F/F0) vs compound concentration plot.

CFTR G551D mutant = biological target: T2, CFTR G551D mutant (Homo sapiens, UniProt P13569, G551D); assay: YFP-halide influx assay for the CFTR-G551D mutation (HEK293 cells); type: cell-based; conditions: HEK293 cells expressing CFTR G551D and YFP reporter; forskolin 10.67 μM; read-out: EC50 measured by YFP-halide influx assay for the CFTR-G551D
T2 construct: expressed in transfected cells; host or cells: HEK293 (reverse transfection with plasmids)
Text: 6.3. YFP-Halide Influx Assay for the CFTR-G551D Mutation
The YFP halide influx assay measures the functionality of the cystic fibrosis Transmembrane Conductance regulator (CFTR) channels. The assay is used to evaluate the capacity of compounds to increase the channel opening of existing mutant CFTR channels in the membrane. It makes use of the observation that the yellow fluorescent protein (YFP) variant YFP H148Q, I152L, F47L has its fluorescence substantially quenched by halide ions like Cl^− and I^−. (Galietta et al., 2001)
For this purpose, HEK293-cells are seeded in 96 well plates. During seeding, the cells are reverse-transfected with plasmid vectors that direct the expression of the CFTR G551D mutant and of the YFP reporter. Cells are incubated at 37° C., 5% CO2 for 24 hours so as to allow for sufficient expression of the CFTR protein.
as §1, with “I^−-induced” for “I— induced”, “recorded” for “recorded on an”, “I^−” for “I—”, “7 seconds.” for “2 min on an FDSS/μCell (Hamamatsu).”, “7” for “36”

T1 sequence (P13569 with tags, fused parts or gaps DEL508-508): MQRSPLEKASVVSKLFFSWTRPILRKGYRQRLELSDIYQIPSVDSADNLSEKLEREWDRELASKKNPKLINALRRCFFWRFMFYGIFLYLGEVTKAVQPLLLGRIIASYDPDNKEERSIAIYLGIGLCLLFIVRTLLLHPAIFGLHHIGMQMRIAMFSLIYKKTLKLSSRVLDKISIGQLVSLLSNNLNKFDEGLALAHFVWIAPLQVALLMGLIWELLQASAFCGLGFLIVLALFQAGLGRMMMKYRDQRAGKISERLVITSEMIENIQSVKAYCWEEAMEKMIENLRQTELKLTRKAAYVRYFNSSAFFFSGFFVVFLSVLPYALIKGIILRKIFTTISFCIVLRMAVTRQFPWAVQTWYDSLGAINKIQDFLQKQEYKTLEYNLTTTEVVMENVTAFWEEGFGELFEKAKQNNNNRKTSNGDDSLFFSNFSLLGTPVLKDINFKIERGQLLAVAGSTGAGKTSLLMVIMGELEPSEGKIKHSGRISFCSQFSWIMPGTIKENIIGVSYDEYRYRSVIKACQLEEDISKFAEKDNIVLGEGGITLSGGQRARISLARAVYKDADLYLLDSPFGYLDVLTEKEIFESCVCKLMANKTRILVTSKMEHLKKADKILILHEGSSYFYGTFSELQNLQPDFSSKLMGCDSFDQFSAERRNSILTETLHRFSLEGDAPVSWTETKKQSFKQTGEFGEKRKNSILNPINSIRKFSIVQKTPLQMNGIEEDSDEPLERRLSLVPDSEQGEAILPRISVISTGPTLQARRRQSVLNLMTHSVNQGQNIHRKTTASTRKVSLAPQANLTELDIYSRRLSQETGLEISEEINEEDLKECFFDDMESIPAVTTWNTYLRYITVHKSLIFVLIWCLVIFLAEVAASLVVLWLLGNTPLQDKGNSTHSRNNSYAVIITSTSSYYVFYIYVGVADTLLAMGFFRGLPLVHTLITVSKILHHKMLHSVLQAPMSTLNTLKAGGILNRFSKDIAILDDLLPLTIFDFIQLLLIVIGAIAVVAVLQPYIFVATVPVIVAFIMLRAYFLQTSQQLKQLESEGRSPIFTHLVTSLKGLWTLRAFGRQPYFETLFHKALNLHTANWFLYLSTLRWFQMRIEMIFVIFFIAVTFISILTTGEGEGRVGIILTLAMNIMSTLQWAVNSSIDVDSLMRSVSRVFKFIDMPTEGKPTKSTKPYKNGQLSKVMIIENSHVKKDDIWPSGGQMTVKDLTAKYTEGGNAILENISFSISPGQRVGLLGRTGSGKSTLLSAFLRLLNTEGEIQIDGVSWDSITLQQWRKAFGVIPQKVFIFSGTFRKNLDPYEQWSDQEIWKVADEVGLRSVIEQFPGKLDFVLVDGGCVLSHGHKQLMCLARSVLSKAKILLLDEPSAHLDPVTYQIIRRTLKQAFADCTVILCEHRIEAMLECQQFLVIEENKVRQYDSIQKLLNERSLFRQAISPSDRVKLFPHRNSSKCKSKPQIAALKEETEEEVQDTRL
T2 sequence (P13569 whole entry G551D): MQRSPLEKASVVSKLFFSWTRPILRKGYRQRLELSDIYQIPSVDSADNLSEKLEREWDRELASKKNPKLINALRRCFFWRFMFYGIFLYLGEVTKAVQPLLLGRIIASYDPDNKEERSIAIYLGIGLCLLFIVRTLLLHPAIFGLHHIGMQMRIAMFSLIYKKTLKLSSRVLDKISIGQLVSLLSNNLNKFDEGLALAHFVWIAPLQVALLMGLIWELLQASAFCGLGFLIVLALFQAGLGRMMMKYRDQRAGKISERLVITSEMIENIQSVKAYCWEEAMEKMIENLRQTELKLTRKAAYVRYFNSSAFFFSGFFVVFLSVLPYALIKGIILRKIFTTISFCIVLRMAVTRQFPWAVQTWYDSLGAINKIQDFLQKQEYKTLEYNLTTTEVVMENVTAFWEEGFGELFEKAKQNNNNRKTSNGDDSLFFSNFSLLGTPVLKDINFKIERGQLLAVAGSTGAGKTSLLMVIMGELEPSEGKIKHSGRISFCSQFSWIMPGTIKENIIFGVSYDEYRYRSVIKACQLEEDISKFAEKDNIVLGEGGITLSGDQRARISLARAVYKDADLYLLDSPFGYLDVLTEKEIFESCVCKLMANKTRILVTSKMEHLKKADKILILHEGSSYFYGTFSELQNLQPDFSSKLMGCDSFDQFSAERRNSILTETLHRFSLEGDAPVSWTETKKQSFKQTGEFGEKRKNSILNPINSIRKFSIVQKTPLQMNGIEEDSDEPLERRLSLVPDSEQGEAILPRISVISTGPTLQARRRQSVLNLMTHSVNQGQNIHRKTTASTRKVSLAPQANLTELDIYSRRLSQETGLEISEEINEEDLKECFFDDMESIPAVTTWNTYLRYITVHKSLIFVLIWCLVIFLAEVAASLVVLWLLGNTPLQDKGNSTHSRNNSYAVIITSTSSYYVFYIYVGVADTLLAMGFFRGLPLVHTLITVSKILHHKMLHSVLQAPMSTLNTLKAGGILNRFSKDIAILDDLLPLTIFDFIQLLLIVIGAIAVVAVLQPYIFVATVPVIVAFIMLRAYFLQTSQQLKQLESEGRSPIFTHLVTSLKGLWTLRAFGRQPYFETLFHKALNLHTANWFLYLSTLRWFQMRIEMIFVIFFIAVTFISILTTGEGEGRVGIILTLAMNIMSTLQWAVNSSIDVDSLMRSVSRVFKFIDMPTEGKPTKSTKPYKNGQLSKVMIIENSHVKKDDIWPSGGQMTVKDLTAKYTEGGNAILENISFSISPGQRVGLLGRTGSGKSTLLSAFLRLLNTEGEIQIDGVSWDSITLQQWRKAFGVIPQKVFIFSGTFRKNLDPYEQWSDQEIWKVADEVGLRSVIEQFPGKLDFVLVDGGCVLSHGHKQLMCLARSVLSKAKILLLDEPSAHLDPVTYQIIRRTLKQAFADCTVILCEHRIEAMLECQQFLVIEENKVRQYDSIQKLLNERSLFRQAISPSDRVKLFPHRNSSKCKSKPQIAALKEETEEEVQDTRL

Compound | EC50 (CFTR ΔF508 mutant) [nM] | EC50 (CFTR G551D mutant) [µM]
CC1(C)Cc2c(sc(NC(=O)C(CO)CC3CC3)c2C(N)=O)C(C)(C)O1 (single isomer, unassigned) [Compound 96, 2-[[2-(cyclopropylmethyl)-3-hydroxy-propanoyl]amino]-5,5,7,7-tetramethyl-4H-thieno[2,3-c]pyran-3-carboxamide] | 97.4 | 3.33
CC1(C)Cc2c(sc(NC(=O)c3n[nH]cc3C3COCCO3)c2C(N)=O)C(C)(C)O1 (single isomer, unassigned) [Compound 111, N-(3-carbamoyl-5,5,7,7-tetramethyl-4H-thieno[2,3-c]pyran-2-yl)-4-[1,4-dioxan-2-yl]-1H-pyrazole-3-carboxamide] | 23.9 | 3.1
CC1(C)Cc2c(sc(NC(=O)C3CC3(F)F)c2C(N)=O)C(C)(C)O1 (stereo not drawn) [Compound 48, 2-[(2,2-difluorocyclopropanecarbonyl)amino]-5,5,7,7-tetramethyl-4H-thieno[2,3-c]pyran-3-carboxamide] | 66.6 | 4.57
CC1(C)Cc2c(sc(NC(=O)C(O)C3CC3)c2C(N)=O)C(C)(C)O1 (stereo not drawn) [Compound 60, 2-[(2-cyclopropyl-2-hydroxy-acetyl)amino]-5,5,7,7-tetramethyl-4H-thieno[2,3-c]pyran-3-carboxamide] | 18.4 | 6.67
Cc1ccn2c(=O)c(C(=O)Nc3sc4c(c3C(N)=O)CC(C)(C)OC4(C)C)cnc2c1 [Compound 144, N-(3-carbamoyl-5,5,7,7-tetramethyl-4H-thieno[2,3-c]pyran-2-yl)-8-methyl-4-oxo-pyrido[1,2-a]pyrimidine-3-carboxamide] | 472 | –
Cc1oncc1C(=O)Nc1sc2c(c1C(N)=O)CC(C)(C)OC2(C)C [Compound 146, N-(3-carbamoyl-5,5,7,7-tetramethyl-4H-thieno[2,3-c]pyran-2-yl)-5-methyl-isoxazole-4-carboxamide] | 202 | –
C[C@H](O)C(=O)Nc1sc2c(c1C(N)=O)CC(C)(C)OC2(C)C [Compound 153, 2-[[(2S)-2-hydroxypropanoyl]amino]-5,5,7,7-tetramethyl-4H-thieno[2,3-c]pyran-3-carboxamide] | 33.9 | –
COCC(C)(O)C(=O)Nc1sc2c(c1C(N)=O)CC(C)(C)OC2(C)C (stereo not drawn) [Compound 155, 2-[(2-hydroxy-3-methoxy-2-methyl-propanoyl)amino]-5,5,7,7-tetramethyl-4H-thieno[2,3-c]pyran-3-carboxamide] | 71.5 | –
COCC(=O)Nc1sc2c(c1C(N)=O)CC(C)(C)OC2(C)C [Compound 160, 2-[(2-methoxyacetyl)amino]-5,5,7,7-tetramethyl-4H-thieno[2,3-c]pyran-3-carboxamide] | 641 | –
CC1(C)Cc2c(sc(NC(=O)C3CCCO3)c2C(N)=O)C(C)(C)O1 (stereo not drawn) [Compound 162, 5,5,7,7-tetramethyl-2-(tetrahydrofuran-2-carbonylamino)-4H-thieno[2,3-c]pyran-3-carboxamide] | 602 | –
COC(C)(C)C(=O)Nc1sc2c(c1C(N)=O)CC(C)(C)OC2(C)C [Compound 164, 2-[(2-methoxy-2-methyl-propanoyl)amino]-5,5,7,7-tetramethyl-4H-thieno[2,3-c]pyran-3-carboxamide] | 646 | –
CC1(C)Cc2c(sc(NC(=O)C(O)C(F)(F)F)c2C(N)=O)C(C)(C)O1 (stereo not drawn) [Compound 167, 5,5,7,7-tetramethyl-2-[(3,3,3-trifluoro-2-hydroxy-propanoyl)amino]-4H-thieno[2,3-c]pyran-3-carboxamide] | 7.58 | –

More lines, in order of falling EC50 (CFTR ΔF508 mutant), values ahead:

EC50 (CFTR ΔF508 mutant) [nM] | EC50 (CFTR G551D mutant) [µM] | Compound
636 | – | CC1(C)Cc2c(sc(NC(=O)C3CCOC3)c2C(N)=O)C(C)(C)O1 (stereo not drawn) [Compound 163, 5,5,7,7-tetramethyl-2-(tetrahydrofuran-3-carbonylamino)-4H-thieno[2,3-c]pyran-3-carboxamide]
346 | – | Cc1cc2nnc(C(=O)Nc3sc4c(c3C(N)=O)CC(C)(C)OC4(C)C)c(C)n2n1 [Compound 149, N-(3-carbamoyl-5,5,7,7-tetramethyl-4H-thieno[2,3-c]pyran-2-yl)-4,7-dimethyl-pyrazolo[5,1-c][1,2,4]triazine-3-carboxamide]
301 | – | CC1(C)Cc2c(sc(NC(=O)C3CCOCC3)c2C(N)=O)C(C)(C)O1 [Compound 158, 5,5,7,7-tetramethyl-2-(tetrahydropyran-4-carbonylamino)-4H-thieno[2,3-c]pyran-3-carboxamide]
169 | – | CC1(C)Cc2c(sc(NC(=O)C3(C)COC3)c2C(N)=O)C(C)(C)O1 [Compound 147, 5,5,7,7-tetramethyl-2-[(3-methyloxetane-3-carbonyl)amino]-4H-thieno[2,3-c]pyran-3-carboxamide]
154 | – | CC1(C)Cc2c(sc(NC(=O)c3cnc4c(c3)OCCO4)c2C(N)=O)C(C)(C)O1 [Compound 145, N-(3-carbamoyl-5,5,7,7-tetramethyl-4H-thieno[2,3-c]pyran-2-yl)-2,3-dihydro-[1,4]dioxino[2,3-b]pyridine-7-carboxamide]
144 | – | Cc1noc(C)c1C(=O)Nc1sc2c(c1C(N)=O)CC(C)(C)OC2(C)C [Compound 140, N-(3-carbamoyl-5,5,7,7-tetramethyl-4H-thieno[2,3-c]pyran-2-yl)-3,5-dimethyl-isoxazole-4-carboxamide]
125 | 5.67 | CC1(C)Cc2c(sc(NC(=O)c3cn[nH]c3)c2C(N)=O)C(C)(C)O1 [Compound 49, N-(3-carbamoyl-5,5,7,7-tetramethyl-4H-thieno[2,3-c]pyran-2-yl)-1H-pyrazole-4-carboxamide]
118 | 4.71 | CC1(C)Cc2c(sc(NC(=O)C3CC(F)(F)C3)c2C(N)=O)C(C)(C)O1 [Compound 47, 2-[(3,3-difluorocyclobutanecarbonyl)amino]-5,5,7,7-tetramethyl-4H-thieno[2,3-c]pyran-3-carboxamide]
113 | 2.78 | CC1(C)Cc2c(sc(NC(=O)C(CO)CC3CC3)c2C(N)=O)C(C)(C)O1 (single isomer, unassigned) [Compound 97, 2-[[2-(cyclopropylmethyl)-3-hydroxy-propanoyl]amino]-5,5,7,7-tetramethyl-4H-thieno[2,3-c]pyran-3-carboxamide]
92.5 | 5.55 | CC(C)C(O)C(=O)Nc1sc2c(c1C(N)=O)CC(C)(C)OC2(C)C (single isomer, unassigned) [Compound 51, 2-[[2-hydroxy-3-methyl-butanoyl]amino]-5,5,7,7-tetramethyl-4H-thieno[2,3-c]pyran-3-carboxamide]
34.4 | 1.83 | CC1(C)Cc2c(sc(NC(=O)c3n[nH]cc3C3COCCO3)c2C(N)=O)C(C)(C)O1 (single isomer, unassigned) [Compound 112, N-(3-carbamoyl-5,5,7,7-tetramethyl-4H-thieno[2,3-c]pyran-2-yl)-4-[1,4-dioxan-2-yl]-1H-pyrazole-3-carboxamide]
33.1 | – | CC1(C)Cc2c(sc(NC(=O)c3n[nH]c4ncccc34)c2C(N)=O)C(C)(C)O1 [Compound 157, N-(3-carbamoyl-5,5,7,7-tetramethyl-4H-thieno[2,3-c]pyran-2-yl)-1H-pyrazolo[3,4-b]pyridine-3-carboxamide]
9.91 | 3.33 | CCC(O)C(=O)Nc1sc2c(c1C(N)=O)CC(C)(C)OC2(C)C (stereo not drawn) [Compound 53, 2-(2-hydroxybutanoylamino)-5,5,7,7-tetramethyl-4H-thieno[2,3-c]pyran-3-carboxamide]
8.74 | 3.33 | CC(O)C1(C(=O)Nc2sc3c(c2C(N)=O)CC(C)(C)OC3(C)C)CC1 (stereo not drawn) [Compound 59, 2-[[1-(1-hydroxyethyl)cyclopropanecarbonyl]amino]-5,5,7,7-tetramethyl-4H-thieno[2,3-c]pyran-3-carboxamide]
4.32 | 3.26 | CC(C)(C)CC(O)C(=O)Nc1sc2c(c1C(N)=O)CC(C)(C)OC2(C)C (single isomer, unassigned) [Compound 109, 2-[[2-hydroxy-4,4-dimethyl-pentanoyl]amino]-5,5,7,7-tetramethyl-4H-thieno[2,3-c]pyran-3-carboxamide]
